{
  "source": "PubChem BioAssay AID1963441",
  "about": "(Molecular Pharmacology Branch, DTP, NCI, 2024)",
  "test_system": "NCI-H1876 complex spheroid growth, % test/control",
  "experiment": "Anticancer human tumor NCI-H1876 cell line growth inhibition [Asc];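 further: compound exposure lasted 7 days starting three days after seeding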;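 on viability, T/C: 100% = DMSO vehicle control wells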",
  "conditions": "for IC50: curve of first compound; for viability, T/C: stronger effect = lower value",
  "in_short": "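Tumor cells were grown as complex spheroids with human endothelial cells (HUVEC) and human mesenchymal stem cells as stroma. Agents were tested alone and in combination, in half-log steps down from the clinical Cmax, or from 10 microM where Cmax was unknown.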",
  "data": [
    {"smiles": "O=C(c1cc(Cc2n[nH]c(=O)c3ccccc23)ccc1F)N1CCN(C(=O)C2CC2)CC1", "note": "+ CCN1C(C(=O)NC23CCC(C(=O)O)(CC2)CC3)C(c2cccc(Cl)c2F)C2(C(=O)Nc3cc(Cl)ccc32)C12CCCCC2", "values": [
      {"measurement": "IC50", "setting": "second compound 0.00949 µM", "result": "> 10", "unit": "µM"},
      {"measurement": "IC50", "setting": "second compound 0.03 µM", "result": "> 10", "unit": "µM"},
      {"measurement": "IC50", "setting": "second compound 0.0949 µM", "result": "> 10", "unit": "µM"},
      {"measurement": "IC50", "setting": "second compound 0.3 µM", "result": "> 10", "unit": "µM"},
      {"measurement": "IC50", "setting": "second compound 0.949 µM", "result": "> 10", "unit": "µM"},
      {"measurement": "IC50", "setting": "second compound 3 µM", "result": "> 10", "unit": "µM"},
      {"measurement": "viability, T/C", "setting": "second compound 0.00949 µM, first compound 0.0316 µM", "result": 99.3, "unit": "%"},
      {"measurement": "viability, T/C", "setting": "second compound 0.00949 µM, first compound 0.1 µM", "result": 94.5, "unit": "%"},
      {"measurement": "viability, T/C", "setting": "second compound 0.00949 µM, first compound 0.316 µM", "result": 118, "unit": "%"},
      {"measurement": "viability, T/C", "setting": "second compound 0.00949 µM, first compound 1 µM", "result": 102, "unit": "%"},
      {"measurement": "viability, T/C", "setting": "second compound 0.00949 µM, first compound 3.16 µM", "result": 100, "unit": "%"},
      {"measurement": "viability, T/C", "setting": "second compound 0.00949 µM, first compound 10 µM", "result": 80.2, "unit": "%"},
      {"measurement": "viability, T/C", "setting": "second compound 0.03 µM, first compound 0.0316 µM", "result": 104, "unit": "%"},
      {"measurement": "viability, T/C", "setting": "second compound 0.03 µM, first compound 0.1 µM", "result": 100, "unit": "%"},
      {"measurement": "viability, T/C", "setting": "second compound 0.03 µM, first compound 0.316 µM", "result": 97.4, "unit": "%"},
      {"measurement": "viability, T/C", "setting": "second compound 0.03 µM, first compound 1 µM", "result": 108, "unit": "%"},
      {"measurement": "viability, T/C", "setting": "second compound 0.03 µM, first compound 3.16 µM", "result": 116, "unit": "%"},
      {"measurement": "viability, T/C", "setting": "second compound 0.03 µM, first compound 10 µM", "result": 82, "unit": "%"},
      {"measurement": "viability, T/C", "setting": "second compound 0.0949 µM, first compound 0.0316 µM", "result": 101, "unit": "%"},
      {"measurement": "viability, T/C", "setting": "second compound 0.0949 µM, first compound 0.1 µM", "result": 106, "unit": "%"},
      {"measurement": "viability, T/C", "setting": "second compound 0.0949 µM, first compound 0.316 µM", "result": 104, "unit": "%"},
      {"measurement": "viability, T/C", "setting": "second compound 0.0949 µM, first compound 1 µM", "result": 102, "unit": "%"},
      {"measurement": "viability, T/C", "setting": "second compound 0.0949 µM, first compound 3.16 µM", "result": 112, "unit": "%"},
      {"measurement": "viability, T/C", "setting": "second compound 0.0949 µM, first compound 10 µM", "result": 85.5, "unit": "%"},
      {"measurement": "viability, T/C", "setting": "second compound 0.3 µM, first compound 0.0316 µM", "result": 106, "unit": "%"},
      {"measurement": "viability, T/C", "setting": "second compound 0.3 µM, first compound 0.1 µM", "result": 116, "unit": "%"},
      {"measurement": "viability, T/C", "setting": "second compound 0.3 µM, first compound 0.316 µM", "result": 108, "unit": "%"},
      {"measurement": "viability, T/C", "setting": "second compound 0.3 µM, first compound 1 µM", "result": 102, "unit": "%"},
      {"measurement": "viability, T/C", "setting": "second compound 0.3 µM, first compound 3.16 µM", "result": 112, "unit": "%"},
      {"measurement": "viability, T/C", "setting": "second compound 0.3 µM, first compound 10 µM", "result": 97, "unit": "%"},
      {"measurement": "viability, T/C", "setting": "second compound 0.949 µM, first compound 0.0316 µM", "result": 122, "unit": "%"},
      {"measurement": "viability, T/C", "setting": "second compound 0.949 µM, first compound 0.1 µM", "result": 114, "unit": "%"},
      {"measurement": "viability, T/C", "setting": "second compound 0.949 µM, first compound 0.316 µM", "result": 110, "unit": "%"},
      {"measurement": "viability, T/C", "setting": "second compound 0.949 µM, first compound 1 µM", "result": 123, "unit": "%"},
      {"measurement": "viability, T/C", "setting": "second compound 0.949 µM, first compound 3.16 µM", "result": 117, "unit": "%"},
      {"measurement": "viability, T/C", "setting": "second compound 0.949 µM, first compound 10 µM", "result": 83.2, "unit": "%"},
      {"measurement": "viability, T/C", "setting": "second compound 3 µM, first compound 0.0316 µM", "result": 102, "unit": "%"},
      {"measurement": "viability, T/C", "setting": "second compound 3 µM, first compound 0.1 µM", "result": 108, "unit": "%"},
      {"measurement": "viability, T/C", "setting": "second compound 3 µM, first compound 0.316 µM", "result": 101, "unit": "%"},
      {"measurement": "viability, T/C", "setting": "second compound 3 µM, first compound 1 µM", "result": 106, "unit": "%"},
      {"measurement": "viability, T/C", "setting": "second compound 3 µM, first compound 3.16 µM", "result": 98, "unit": "%"},
      {"measurement": "viability, T/C", "setting": "second compound 3 µM, first compound 10 µM", "result": 76.9, "unit": "%"}
    ]},
    {"smiles": "NC(=O)C(=Cn1cnc(-c2cc(C(F)(F)F)cc(C(F)(F)F)c2)n1)c1cncnc1", "note": "+ CNC(C)C(=O)NC1CN(S(=O)(=O)c2cccc(S(=O)(=O)N3CCC4CCC(C(=O)NC(c5ccccc5)c5ccccc5)N4C(=O)C(NC(=O)C(C)NC)C3)c2)CCC2CCC(C(=O)NC(c3ccccc3)c3ccccc3)N2C1=O", "values": [
      {"measurement": "IC50", "setting": "second compound 0.00316 µM", "result": "> 0.3", "unit": "µM"},
      {"measurement": "IC50", "setting": "second compound 0.01 µM", "result": "> 0.3", "unit": "µM"},
      {"measurement": "IC50", "setting": "second compound 0.0316 µM", "result": "> 0.3", "unit": "µM"},
      {"measurement": "IC50", "setting": "second compound 0.1 µM", "result": "> 0.3", "unit": "µM"},
      {"measurement": "IC50", "setting": "second compound 0.316 µM", "result": "> 0.3", "unit": "µM"},
      {"measurement": "IC50", "setting": "second compound 1 µM", "result": "> 0.3", "unit": "µM"},
      {"measurement": "viability, T/C", "setting": "second compound 0.00316 µM, first compound 0.000949 µM", "result": 110, "unit": "%"},
      {"measurement": "viability, T/C", "setting": "second compound 0.00316 µM, first compound 0.003 µM", "result": 92.8, "unit": "%"},
      {"measurement": "viability, T/C", "setting": "second compound 0.00316 µM, first compound 0.00949 µM", "result": 91.9, "unit": "%"},
      {"measurement": "viability, T/C", "setting": "second compound 0.00316 µM, first compound 0.03 µM", "result": 83.8, "unit": "%"},
      {"measurement": "viability, T/C", "setting": "second compound 0.00316 µM, first compound 0.0949 µM", "result": 100, "unit": "%"},
      {"measurement": "viability, T/C", "setting": "second compound 0.00316 µM, first compound 0.3 µM", "result": 105, "unit": "%"},
      {"measurement": "viability, T/C", "setting": "second compound 0.01 µM, first compound 0.000949 µM", "result": 93.4, "unit": "%"},
      {"measurement": "viability, T/C", "setting": "second compound 0.01 µM, first compound 0.003 µM", "result": 90.6, "unit": "%"},
      {"measurement": "viability, T/C", "setting": "second compound 0.01 µM, first compound 0.00949 µM", "result": 96.6, "unit": "%"},
      {"measurement": "viability, T/C", "setting": "second compound 0.01 µM, first compound 0.03 µM", "result": 92.4, "unit": "%"},
      {"measurement": "viability, T/C", "setting": "second compound 0.01 µM, first compound 0.0949 µM", "result": 108, "unit": "%"},
      {"measurement": "viability, T/C", "setting": "second compound 0.01 µM, first compound 0.3 µM", "result": 98.2, "unit": "%"},
      {"measurement": "viability, T/C", "setting": "second compound 0.0316 µM, first compound 0.000949 µM", "result": 91.4, "unit": "%"},
      {"measurement": "viability, T/C", "setting": "second compound 0.0316 µM, first compound 0.003 µM", "result": 102, "unit": "%"},
      {"measurement": "viability, T/C", "setting": "second compound 0.0316 µM, first compound 0.00949 µM", "result": 92.4, "unit": "%"},
      {"measurement": "viability, T/C", "setting": "second compound 0.0316 µM, first compound 0.03 µM", "result": 92.5, "unit": "%"},
      {"measurement": "viability, T/C", "setting": "second compound 0.0316 µM, first compound 0.0949 µM", "result": 104, "unit": "%"},
      {"measurement": "viability, T/C", "setting": "second compound 0.0316 µM, first compound 0.3 µM", "result": 94, "unit": "%"},
      {"measurement": "viability, T/C", "setting": "second compound 0.1 µM, first compound 0.000949 µM", "result": 86.2, "unit": "%"},
      {"measurement": "viability, T/C", "setting": "second compound 0.1 µM, first compound 0.003 µM", "result": 93.9, "unit": "%"},
      {"measurement": "viability, T/C", "setting": "second compound 0.1 µM, first compound 0.00949 µM", "result": 93.5, "unit": "%"},
      {"measurement": "viability, T/C", "setting": "second compound 0.1 µM, first compound 0.03 µM", "result": 104, "unit": "%"},
      {"measurement": "viability, T/C", "setting": "second compound 0.1 µM, first compound 0.0949 µM", "result": 102, "unit": "%"},
      {"measurement": "viability, T/C", "setting": "second compound 0.1 µM, first compound 0.3 µM", "result": 103, "unit": "%"},
      {"measurement": "viability, T/C", "setting": "second compound 0.316 µM, first compound 0.000949 µM", "result": 95.6, "unit": "%"},
      {"measurement": "viability, T/C", "setting": "second compound 0.316 µM, first compound 0.003 µM", "result": 96.9, "unit": "%"},
      {"measurement": "viability, T/C", "setting": "second compound 0.316 µM, first compound 0.00949 µM", "result": 88.6, "unit": "%"},
      {"measurement": "viability, T/C", "setting": "second compound 0.316 µM, first compound 0.03 µM", "result": 90.1, "unit": "%"},
      {"measurement": "viability, T/C", "setting": "second compound 0.316 µM, first compound 0.0949 µM", "result": 100, "unit": "%"},
      {"measurement": "viability, T/C", "setting": "second compound 0.316 µM, first compound 0.3 µM", "result": 91.5, "unit": "%"},
      {"measurement": "viability, T/C", "setting": "second compound 1 µM, first compound 0.000949 µM", "result": 96.8, "unit": "%"},
      {"measurement": "viability, T/C", "setting": "second compound 1 µM, first compound 0.003 µM", "result": 93.6, "unit": "%"},
      {"measurement": "viability, T/C", "setting": "second compound 1 µM, first compound 0.00949 µM", "result": 102, "unit": "%"},
      {"measurement": "viability, T/C", "setting": "second compound 1 µM, first compound 0.03 µM", "result": 95.9, "unit": "%"},
      {"measurement": "viability, T/C", "setting": "second compound 1 µM, first compound 0.0949 µM", "result": 104, "unit": "%"},
      {"measurement": "viability, T/C", "setting": "second compound 1 µM, first compound 0.3 µM", "result": 86.3, "unit": "%"}
    ]}
  ]
}
